Experimental findings from PMC5539244, “2-Oxoesters: A Novel Class of Potent and Selective Inhibitors of Cytosolic Group IVA Phospholipase A2” (Scientific Reports, 2017) are described below.

A value given as a limit tells only on which side of the number the result lay.

The target of series [1] is T1, recombinant human GIVA cPLA2 (Homo sapiens, UniProt P47712).
T1 sequence (P47712 1-749): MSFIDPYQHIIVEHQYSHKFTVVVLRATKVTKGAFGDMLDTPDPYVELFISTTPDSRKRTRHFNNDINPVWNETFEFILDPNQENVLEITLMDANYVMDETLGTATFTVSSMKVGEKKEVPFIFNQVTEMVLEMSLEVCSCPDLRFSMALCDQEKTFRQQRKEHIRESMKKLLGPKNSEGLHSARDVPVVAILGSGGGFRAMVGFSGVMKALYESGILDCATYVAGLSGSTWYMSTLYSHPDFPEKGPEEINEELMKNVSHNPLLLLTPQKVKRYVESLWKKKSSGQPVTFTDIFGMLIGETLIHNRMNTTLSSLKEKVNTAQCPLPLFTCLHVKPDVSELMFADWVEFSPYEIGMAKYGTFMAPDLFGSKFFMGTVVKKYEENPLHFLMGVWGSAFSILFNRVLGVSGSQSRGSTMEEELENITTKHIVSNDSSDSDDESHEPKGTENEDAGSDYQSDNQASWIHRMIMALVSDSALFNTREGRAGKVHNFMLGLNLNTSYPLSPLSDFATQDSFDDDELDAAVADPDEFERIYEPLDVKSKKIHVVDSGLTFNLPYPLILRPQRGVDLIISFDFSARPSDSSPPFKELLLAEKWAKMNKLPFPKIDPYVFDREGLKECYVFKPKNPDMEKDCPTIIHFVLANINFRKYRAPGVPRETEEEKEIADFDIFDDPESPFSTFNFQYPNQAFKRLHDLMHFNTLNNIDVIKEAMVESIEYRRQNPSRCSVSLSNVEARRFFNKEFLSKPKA
As to the kind of experiment: mixed micelle assay, GIVA cPLA2 inhibition. It counts as biochemical.

For a further series, the target named is T2, human GV sPLA2 (Homo sapiens, UniProt P39877).
T2 sequence (P39877 21-138): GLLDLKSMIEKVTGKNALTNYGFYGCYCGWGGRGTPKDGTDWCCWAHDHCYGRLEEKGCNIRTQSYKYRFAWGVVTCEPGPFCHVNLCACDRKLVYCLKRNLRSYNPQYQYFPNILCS
As to the kind of experiment: mixed micelle assay, GV sPLA2 inhibition. It counts as biochemical. Particulars: read-out: GV sPLA2 % Inhibition.

A short description of a further series: logP measured by HPLC. It counts as physicochemical.
Series [2] deals with RAW264.7 macrophages. As to the kind of experiment: KLA-elicited eicosanoid production in macrophages (LC-MS/MS). Type of series: cell-based, murine. Particulars: 5 μM inhibitor 1 h before KLA 100 ng/mL; supernatant at 24 h. As for the experimental part:
It is well established that the toll-like receptor 4 (TLR4)-specific agonist Kdo2-lipid A (KLA) leads to GIVA cPLA2 activation, [52] and release of arachidonic acid in macrophages that is then converted into eicosanoids by cyclooxygenase-2[53]–[55]. […] The high levels of PGD2 compared to background in culture supernatants following KLA stimulation makes it an ideal marker for GIVA cPLA2 activity in macrophages. […] RAW264.7 macrophages were pre-treated with vehicle control, DMSO or 17f (5 μM) for one hour prior to stimulation with KLA (100 ng/mL). Culture supernatants were collected after 24 hours for eicosanoid quantification by LC-MS/MS.
Figure 8 Inhibitor 17f inhibits KLA-elicited prostaglandin D2 biosynthesis by macrophages. […] Supernatants were collected 24 hr following stimulation for eicosanoid quantification.
RAW264.7 murine macrophage cells (ATCC #TIB-71) were maintained at 37 °C, 5% CO2 in DMEM (Life Technologies 11995–065) containing 10% FBS (Gemini), 100 U/mL penicillin/streptomycin, 1 mM sodium pyruvate and 4 mM L-glutamine. […] Supernatants were collected at 24 hours for eicosanoid quantification. […] Online UPLC-electrospray ionization MS/MS quantitation of eicosanoids was performed on a QTRAP 6500 hybrid quadrupole/linear ion-trap mass spectrometer (AB Sciex) via multiple reaction monitoring (MRM) in negative ion mode. […]

In series [3] the test system is RAW264.7 macrophages. Kind of series: cellular toxicity by trypan blue exclusion. Type of series: cell-based, murine. Particulars: any concentration tested, data not shown.

Turning to `O=C(O)CCCCOC(=O)C(=O)CCCCc1ccc(-c2ccccc2)cc1` [17f, 5-((6-([1,1′-Biphenyl]-4-yl)-2-oxohexanoyl)oxy)pentanoic acid], in series [1] (addition of the carboxylic moiety), the “increase in potency compared to GK174 on GIVA cPLA2” value was 10 fold. For the same molecule, the “GIVA cPLA2 X I(50)” value in series [1] (mole fraction of inhibitor in total substrate interface giving 50% inhibition) was found to be 0.000078 ± 0.00001 mole fraction. Also, the inhibition (as a rule, the share of the control response that was lost under treatment) at 0.091 mole fraction in series [1] (read-out: GIVA cPLA2 % Inhibition) was more than 95%; on human GV sPLA2 it was less than 25%. The chromatographic logP (usually lipophilicity estimated from chromatographic retention) in “logP measured by HPLC” worked out at 3.5. Also, the “decrease in KLA-elicited PGD2 production” value in the series on RAW264.7 macrophages [2] is recorded as “over 50%”. For the same molecule, in the series with RAW264.7 macrophages [3], the cellular toxicity entry was “did not show cellular toxicity”.
